Assays:
Assay in all cases: biochemical
Design in all cases: KINOMEscan active-site competition binding panel (468 kinase assays), per cent of control at 1000 nM
Conditions in all cases: KINOMEscan per cent of control (binding competition); read-out: Percent Control
RET(M918T) = RET(M918T) (Homo sapiens, UniProt P07949, M918T)
From the text: (§1) Figure S7 / Percent Control

ERK5 = target: T1, ERK5 (Homo sapiens, UniProt Q13164)
T1 construct: gene MAPK7
From the text: as §1

QSK = target: T2, QSK (Homo sapiens, UniProt Q9Y2K2)
T2 construct: gene SIK3
T2 sequence (Q9Y2K2 whole entry): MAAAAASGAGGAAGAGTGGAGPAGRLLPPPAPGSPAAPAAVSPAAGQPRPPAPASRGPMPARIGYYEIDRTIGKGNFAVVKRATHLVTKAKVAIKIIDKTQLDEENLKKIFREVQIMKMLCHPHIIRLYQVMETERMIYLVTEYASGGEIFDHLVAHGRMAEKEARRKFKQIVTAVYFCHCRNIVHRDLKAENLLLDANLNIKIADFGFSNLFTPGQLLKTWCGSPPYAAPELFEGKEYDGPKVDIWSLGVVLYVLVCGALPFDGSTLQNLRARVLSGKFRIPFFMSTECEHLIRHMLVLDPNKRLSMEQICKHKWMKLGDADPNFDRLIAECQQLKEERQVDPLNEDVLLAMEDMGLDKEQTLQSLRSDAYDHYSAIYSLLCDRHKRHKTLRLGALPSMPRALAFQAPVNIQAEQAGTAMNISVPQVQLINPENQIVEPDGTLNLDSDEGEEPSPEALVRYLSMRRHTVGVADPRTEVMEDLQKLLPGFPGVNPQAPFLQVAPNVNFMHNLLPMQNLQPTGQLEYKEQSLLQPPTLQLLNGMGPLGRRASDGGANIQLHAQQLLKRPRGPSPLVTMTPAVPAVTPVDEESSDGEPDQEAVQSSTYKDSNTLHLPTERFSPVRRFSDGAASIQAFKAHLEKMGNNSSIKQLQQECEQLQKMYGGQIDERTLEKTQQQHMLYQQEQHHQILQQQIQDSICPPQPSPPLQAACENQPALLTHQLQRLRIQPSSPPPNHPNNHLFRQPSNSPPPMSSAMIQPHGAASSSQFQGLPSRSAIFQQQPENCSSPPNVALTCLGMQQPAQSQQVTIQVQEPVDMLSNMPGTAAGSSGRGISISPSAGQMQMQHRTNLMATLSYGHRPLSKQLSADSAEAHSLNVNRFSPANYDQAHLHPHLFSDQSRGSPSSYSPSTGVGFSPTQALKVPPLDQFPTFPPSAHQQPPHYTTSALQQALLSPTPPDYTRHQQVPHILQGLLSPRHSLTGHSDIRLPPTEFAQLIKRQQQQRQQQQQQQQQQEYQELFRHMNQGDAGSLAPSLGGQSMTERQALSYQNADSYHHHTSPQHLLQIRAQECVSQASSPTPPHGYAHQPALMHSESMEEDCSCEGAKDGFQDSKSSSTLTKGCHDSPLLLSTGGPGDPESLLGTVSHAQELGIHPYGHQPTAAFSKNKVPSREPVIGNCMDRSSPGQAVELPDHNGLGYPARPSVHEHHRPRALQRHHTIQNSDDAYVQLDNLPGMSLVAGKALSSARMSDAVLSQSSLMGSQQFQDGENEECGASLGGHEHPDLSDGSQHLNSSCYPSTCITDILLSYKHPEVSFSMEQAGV
From the text: as §1

MAP4K4 = MAP4K4 (Homo sapiens, UniProt O95819)
From the text: as §1

[1] = target: T3, JAK1(JH2domain-pseudokinase) (Homo sapiens, UniProt P23458)
T3 construct: JH2domain-pseudokinase
From the text: as §1

IRAK4 = IRAK4 (Homo sapiens, UniProt Q9NWZ3)
From the text: as §1

MYO3B = MYO3B (Homo sapiens, UniProt Q8WXR4)
From the text: as §1

MKNK2 = MKNK2 (Homo sapiens, UniProt Q9HBH9)
Sequence of MKNK2 (Q9HBH9 whole entry): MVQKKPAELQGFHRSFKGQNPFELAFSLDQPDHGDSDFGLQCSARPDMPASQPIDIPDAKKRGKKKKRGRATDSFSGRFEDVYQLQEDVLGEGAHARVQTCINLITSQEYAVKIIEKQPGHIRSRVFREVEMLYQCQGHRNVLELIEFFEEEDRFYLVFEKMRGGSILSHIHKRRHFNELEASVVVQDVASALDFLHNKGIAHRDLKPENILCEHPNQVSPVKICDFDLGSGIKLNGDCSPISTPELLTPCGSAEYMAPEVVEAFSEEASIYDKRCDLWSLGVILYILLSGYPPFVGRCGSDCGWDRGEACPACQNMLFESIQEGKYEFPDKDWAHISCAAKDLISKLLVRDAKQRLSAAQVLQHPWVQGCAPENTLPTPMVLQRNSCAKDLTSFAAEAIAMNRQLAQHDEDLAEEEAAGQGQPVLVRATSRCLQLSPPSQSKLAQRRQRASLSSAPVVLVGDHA
From the text: as §1

TXK = TXK (Homo sapiens, UniProt P42681)
From the text: as §1

[2] = target: T4, JAK1(JH1domain-catalytic) (Homo sapiens, UniProt P23458)
T4 construct: JH1domain-catalytic
From the text: as §1

CDK7 = CDK7 (Homo sapiens, UniProt P50613)
Sequence of CDK7 (P50613 whole entry): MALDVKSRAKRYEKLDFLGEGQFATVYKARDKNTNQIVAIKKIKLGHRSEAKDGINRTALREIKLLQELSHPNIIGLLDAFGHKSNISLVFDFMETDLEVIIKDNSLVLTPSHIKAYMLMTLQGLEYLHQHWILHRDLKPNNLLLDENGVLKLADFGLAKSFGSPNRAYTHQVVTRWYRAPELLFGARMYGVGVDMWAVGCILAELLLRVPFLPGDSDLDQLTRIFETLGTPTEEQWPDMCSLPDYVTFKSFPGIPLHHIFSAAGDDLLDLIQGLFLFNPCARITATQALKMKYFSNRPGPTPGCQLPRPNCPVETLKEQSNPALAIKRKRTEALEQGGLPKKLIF
From the text: as §1

INSR = INSR (Homo sapiens, UniProt P06213)
From the text: as §1

MTOR = MTOR (Homo sapiens, UniProt P42345)
From the text: as §1

MYO3A = MYO3A (Homo sapiens, UniProt Q8NEV4)
From the text: as §1

MARK1 = MARK1 (Homo sapiens, UniProt Q9P0L2)
Sequence of MARK1 (Q9P0L2 whole entry): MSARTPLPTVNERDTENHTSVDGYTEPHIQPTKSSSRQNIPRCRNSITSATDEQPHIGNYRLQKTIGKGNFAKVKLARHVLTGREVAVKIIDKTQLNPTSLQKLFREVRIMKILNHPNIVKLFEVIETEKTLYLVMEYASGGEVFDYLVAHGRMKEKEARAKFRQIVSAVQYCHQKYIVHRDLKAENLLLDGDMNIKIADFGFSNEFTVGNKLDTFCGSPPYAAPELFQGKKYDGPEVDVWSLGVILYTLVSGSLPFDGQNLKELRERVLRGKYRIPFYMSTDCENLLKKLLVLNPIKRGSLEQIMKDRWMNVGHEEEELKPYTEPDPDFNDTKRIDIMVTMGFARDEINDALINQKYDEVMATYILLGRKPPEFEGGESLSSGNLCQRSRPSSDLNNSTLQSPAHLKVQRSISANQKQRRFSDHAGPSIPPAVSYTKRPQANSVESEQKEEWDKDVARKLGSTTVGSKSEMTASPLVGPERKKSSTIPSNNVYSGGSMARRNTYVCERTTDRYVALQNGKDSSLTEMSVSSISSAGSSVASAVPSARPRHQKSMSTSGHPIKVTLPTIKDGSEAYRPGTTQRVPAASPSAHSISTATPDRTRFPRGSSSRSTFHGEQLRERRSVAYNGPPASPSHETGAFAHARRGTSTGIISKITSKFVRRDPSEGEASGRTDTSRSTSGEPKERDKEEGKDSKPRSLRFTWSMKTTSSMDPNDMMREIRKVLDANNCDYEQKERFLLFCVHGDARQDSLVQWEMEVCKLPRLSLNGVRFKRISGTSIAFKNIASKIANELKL
From the text: as §1

ROCK2 = ROCK2 (Homo sapiens, UniProt O75116)
Sequence of ROCK2 (O75116 whole entry): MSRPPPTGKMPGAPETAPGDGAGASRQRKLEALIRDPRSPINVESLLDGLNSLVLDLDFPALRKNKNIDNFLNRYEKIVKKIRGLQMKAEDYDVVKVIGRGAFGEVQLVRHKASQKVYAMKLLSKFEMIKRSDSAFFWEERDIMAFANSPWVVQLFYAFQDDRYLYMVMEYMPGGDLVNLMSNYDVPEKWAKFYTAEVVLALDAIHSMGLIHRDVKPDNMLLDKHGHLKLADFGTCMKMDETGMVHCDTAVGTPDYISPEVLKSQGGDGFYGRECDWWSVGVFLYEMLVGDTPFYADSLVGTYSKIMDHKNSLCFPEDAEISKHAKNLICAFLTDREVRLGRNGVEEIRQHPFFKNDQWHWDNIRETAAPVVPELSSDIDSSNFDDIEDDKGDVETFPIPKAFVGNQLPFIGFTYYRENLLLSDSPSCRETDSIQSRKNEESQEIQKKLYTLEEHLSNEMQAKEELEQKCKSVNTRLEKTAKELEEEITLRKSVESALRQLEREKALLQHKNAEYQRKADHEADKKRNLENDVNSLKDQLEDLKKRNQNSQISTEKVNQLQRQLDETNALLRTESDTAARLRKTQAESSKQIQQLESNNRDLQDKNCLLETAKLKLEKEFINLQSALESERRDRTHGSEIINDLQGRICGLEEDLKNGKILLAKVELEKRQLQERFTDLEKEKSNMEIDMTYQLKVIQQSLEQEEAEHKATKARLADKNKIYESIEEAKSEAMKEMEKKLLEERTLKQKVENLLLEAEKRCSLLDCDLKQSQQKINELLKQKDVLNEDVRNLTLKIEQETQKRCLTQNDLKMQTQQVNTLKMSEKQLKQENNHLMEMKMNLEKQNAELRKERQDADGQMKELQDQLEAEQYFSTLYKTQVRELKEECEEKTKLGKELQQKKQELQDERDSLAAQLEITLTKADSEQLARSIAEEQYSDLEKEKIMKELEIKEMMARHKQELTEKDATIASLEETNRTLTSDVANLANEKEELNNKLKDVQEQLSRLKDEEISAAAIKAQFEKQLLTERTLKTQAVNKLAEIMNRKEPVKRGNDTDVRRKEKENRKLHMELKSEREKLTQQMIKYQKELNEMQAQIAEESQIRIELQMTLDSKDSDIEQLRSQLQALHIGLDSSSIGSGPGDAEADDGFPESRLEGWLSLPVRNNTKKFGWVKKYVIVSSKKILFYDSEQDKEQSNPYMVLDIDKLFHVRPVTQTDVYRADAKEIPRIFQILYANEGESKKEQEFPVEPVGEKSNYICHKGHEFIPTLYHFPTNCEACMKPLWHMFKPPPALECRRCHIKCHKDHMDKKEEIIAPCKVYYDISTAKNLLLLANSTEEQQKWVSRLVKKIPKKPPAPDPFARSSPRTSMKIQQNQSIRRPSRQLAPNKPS
From the text: as §1

FLT4 = FLT4 (Homo sapiens, UniProt P35916)
From the text: as §1

BLK = BLK (Homo sapiens, UniProt P51451)
From the text: as §1

ITK = ITK (Homo sapiens, UniProt Q08881)
From the text: as §1

SGK3 = SGK3 (Homo sapiens, UniProt Q96BR1)
From the text: as §1

MAP3K1 = MAP3K1 (Homo sapiens, UniProt Q13233)
From the text: as §1

MAP4K5 = MAP4K5 (Homo sapiens, UniProt Q9Y4K4)
From the text: as §1

CAMK4 = CAMK4 (Homo sapiens, UniProt Q16566)
Sequence of CAMK4 (Q16566 whole entry): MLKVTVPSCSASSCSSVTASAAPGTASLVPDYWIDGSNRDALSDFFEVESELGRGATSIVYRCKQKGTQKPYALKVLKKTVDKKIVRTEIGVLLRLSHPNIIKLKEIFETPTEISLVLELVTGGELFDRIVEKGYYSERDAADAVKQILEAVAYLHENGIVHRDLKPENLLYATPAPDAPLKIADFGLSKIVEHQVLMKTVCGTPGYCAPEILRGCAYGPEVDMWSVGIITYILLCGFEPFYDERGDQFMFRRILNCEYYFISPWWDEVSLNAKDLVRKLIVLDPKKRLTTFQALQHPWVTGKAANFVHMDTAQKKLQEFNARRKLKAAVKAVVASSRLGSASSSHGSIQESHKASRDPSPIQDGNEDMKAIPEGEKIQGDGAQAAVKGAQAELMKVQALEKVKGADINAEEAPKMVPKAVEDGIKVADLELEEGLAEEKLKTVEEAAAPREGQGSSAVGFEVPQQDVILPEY
From the text: as §1

PCTK3 = target: T5, PCTK3 (Homo sapiens, UniProt Q07002)
T5 construct: gene CDK18
From the text: as §1

CAMK1B = target: T6, CAMK1B (Homo sapiens, UniProt Q6P2M8)
T6 construct: gene PNCK
From the text: as §1

SMILES: Cn1c(=O)[nH]c2ccc(-c3cccc(C(=O)NC4CCn5ccnc5C4)c3)cc21 (stereo not shown) [Z36-MP5]
- remaining binding at 1 µM (RET(M918T)): 90%
- remaining binding at 1 µM (ERK5): 86%
- remaining binding at 1 µM (QSK): 63%
- remaining binding at 1 µM (MAP4K4): 67%
- remaining binding at 1 µM [1]: 51%
- remaining binding at 1 µM (IRAK4): 78%
- remaining binding at 1 µM (MYO3B): 91%
- remaining binding at 1 µM (MKNK2): 82%
- remaining binding at 1 µM (TXK): 98%
- remaining binding at 1 µM [2]: 96%
- remaining binding at 1 µM (CDK7): 42%
- remaining binding at 1 µM (INSR): 57%
- remaining binding at 1 µM (MTOR): 87%
- remaining binding at 1 µM (MYO3A): 100%
- remaining binding at 1 µM (MARK1): 92%
- remaining binding at 1 µM (ROCK2): 61%
- remaining binding at 1 µM (FLT4): 80%
- remaining binding at 1 µM (BLK): 100%
- remaining binding at 1 µM (ITK): 96%
- remaining binding at 1 µM (SGK3): 60%
- remaining binding at 1 µM (MAP3K1): 54%
- remaining binding at 1 µM (MAP4K5): 39%
- remaining binding at 1 µM (CAMK4): 98%
- remaining binding at 1 µM (PCTK3): 86%
- remaining binding at 1 µM (CAMK1B): 59%
